Values after ≈ are worked out from the molar mass of the structure shown. Read-outs that look alike come from different tables or passages of the source.
What was measured:
DPAGT1 = molecular target: T1, DPAGT1 (Homo sapiens, UniProt Q9H3H5); experiment: Radiolabeled substrate enzyme activity assay; assay type: biochemical, H. sapiens
T1 construct: H. sapiens DPAGT1 (1-408, N-terminal 6 x HIS tag, TEV cleavage site); 6xHis purification tag with TEV site (N, cleaved yes); made in house; host or cells: Spodoptera frugiperda Sf9 insect cells (baculovirus)
T1 sequence (Q9H3H5 1-408): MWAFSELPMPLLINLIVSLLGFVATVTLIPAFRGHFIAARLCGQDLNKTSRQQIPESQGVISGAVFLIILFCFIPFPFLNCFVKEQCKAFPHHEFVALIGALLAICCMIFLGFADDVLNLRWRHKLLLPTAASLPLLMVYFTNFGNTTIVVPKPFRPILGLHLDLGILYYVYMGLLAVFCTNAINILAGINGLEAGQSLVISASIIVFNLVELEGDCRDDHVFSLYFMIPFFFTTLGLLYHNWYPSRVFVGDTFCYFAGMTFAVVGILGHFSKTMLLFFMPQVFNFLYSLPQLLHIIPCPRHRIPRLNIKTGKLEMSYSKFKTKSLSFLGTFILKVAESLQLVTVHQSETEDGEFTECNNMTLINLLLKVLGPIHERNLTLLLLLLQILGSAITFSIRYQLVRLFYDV
Description: 2 μl of 2 μM DPAGT1 WT or mutant proteins in GFB buffer supplemented with 5mM extra MgCl2, 1% OGNG/CHS/cardiolipin and dolichyl monophosphate was combined with 2 μl of UDP-N-acetyl [1-14C] […] The reaction was terminated by the addition of 6 μl of 100% methanol and immediately transferred onto ice. 1 μl of sample was spotted onto a silica coated TLC plate in triplicate and run with a mobile phase consisting of chloroform, methanol, and water at a 65:25:4 ratio respectively. After the run, the TLC plate was dried thoroughly, wrapped in cling film, incubated with a phosphor imaging substrate for 4 days, then phosphor imaged using a Biorad. The pixel density of the spots corresponding to the hydrophobic product was divided by combined pixel density of the product and the substrate and multiplied by the known concentration of substrate added to ascertain the amount of product formed.

B. subtilis EC1524 = experiment: Micro-broth dilution and drop plate antimicrobial susceptibility test; assay type: cell-based, Bacillus subtilis; conditions: for Relative Therapeutic Index (RTI), B. subtilis EC1524: minimal lethal dose / MIC, 800 μg mL-1 used for >400
Description: (§1) In a sterile 96-well plate, serial dilutions were made with the test substance to final volume of 50 μl. Inoculum was then prepared in Mueller-Hinton broth to 0.5 McFarland and diluted before adding 50 μl to the well to make ∼1x10^5 CFU/ml. The culture plate was incubated at 35 °C for 20-24 hrs. A positive growth control and sterility wells were also prepared along with the culture wells. Absorbance at OD600 was taken using BMG Labtech SPECTROstar Omega spectrophotometer. MIC is determined by the lowest concentration without growth. IC50 is determined from plotting a dose-response curve, see Data Analysis below. To determine the MBC, using a multi-channel pipette, 1 μl of culture broth was taken from the same 96-well microdilution growth plate and carefully inoculated on surface of MH agar plate. The plate is then incubated for additional 20 hrs. at 35 °C. The MBC value is the lowest concentration without observed growth on the agar.

B. cereus ATCC11778 = experiment: as above; assay type: cell-based, Bacillus cereus; conditions: for Relative Therapeutic Index (RTI), B. cereus NRRL 11778: minimal lethal dose / MIC, 800 μg mL-1 used for >400
Description: as §1

E. coli ATCC25922 = experiment: as above; assay type: cell-based; conditions: Escherichia coli
Description: as §1

P. aeruginosa ATCC27853 = experiment: as above; assay type: cell-based; conditions: Pseudomonas aeruginosa
Description: as §1

S. aureus ATCC29219 = experiment: as above; assay type: cell-based; conditions: Staphylococcus aureus
Description: as §1

Mtb H37Rv ATCC27294 = experiment: Minimum inhibitory concentrations testing against Mtb; assay type: cell-based, Mycobacterium tuberculosis; conditions: for MIC: Mycobacterium tuberculosis, 168 h; for Relative Therapeutic Index (RTI), Mtb H37RV a / Relative Therapeutic Index (RTI), Mtb H37RV b: minimal lethal dose / MIC, 800 μg mL-1 used for >400; for Relative Therapeutic Index (RTI), Mtb H37RV a: 7H9/ADC/Tw; for Relative Therapeutic Index (RTI), Mtb H37RV b: GAST/Fe
HEK293 cells = experiment: Cell proliferation assay (MTS); assay type: cell-based, human; conditions: for LD50 values, HEK293: MTS cell proliferation assay, 24 hrs, highest concentration 400 µg mL-1; for Minimal Lethal Dose, HEK 293: serial 2-fold dilutions (Table S6)
Description: (§2) In sterile 96-well plate, each well was seeded with ∼1x10^5 cells. The cells are then grown confluent overnight in 100 μl DMEM with 10% FBS. The medium is replenished with DMEM with 2% FBS and added vehicle control or test substance the next day. For test substance in methanol, stock was added to 25 μl of DMEM with 2% FBS or PBS and placed in the laminar flow hood to let the methanol evaporate (about 1-3 hrs). Once the methanol has evaporated, DMEM with 2% FBS was added to final volume of 100 μl of desired test concentration. […] Cells are grown for additional 24 hrs. The cell viability was determined by using Promega CellTiter 96^© AQueous One Solution Cell Proliferation Assay (3-(4,5-dimethylthiazol-2-yl)-5-(3-carboxymethoxyphenyl)-2-(4-sulfophenyl)-2H-tetrazolium, inner salt; MTS) System following the manufacture protocol.

HepG2 cells = experiment: Cell proliferation assay (MTS); assay type: cell-based, human; conditions: for LD50 values, HepG2: MTS cell proliferation assay, 24 hrs, highest concentration 400 µg mL-1; for Minimal Lethal Dose, HepG2: serial 2-fold dilutions (Table S6)
Description: as §2

Raji cells = experiment: Cell proliferation assay (MTS); assay type: cell-based, human; conditions: 24 hrs
Description: as §2

[1] = system: Mtb-infected J774A.1 macrophages; experiment: Efficacy against Mtb growing in infected macrophages; conditions: J774A.1 macrophages treated 3 or 7 days
[2] = Bacillus subtilis, EC1524, read-out: Minimal Inhibitory Concentration, B. subtilis EC1524
[3] = Bacillus cereus, ATCC 11778 / NRRL11778, read-out: Minimal Inhibitory Concentration, B. cereus NRRL 11778
[4] = read-out: 1-week MIC in 7H9/ADC/Tw
[5] = read-out: 1-week MIC in GAST/Fe
[6] = read-out: Minimal Inhibitory Concentration, Mtb H37RV a
[7] = read-out: Minimal Inhibitory Concentration, Mtb H37RV b

| Compound | IC50 (B. subtilis EC1524; Bacillus subtilis, EC1524) [µg/mL] | MBC (B. subtilis EC1524; Bacillus subtilis, EC1524) [µg/mL] | MIC (B. subtilis EC1524; Bacillus subtilis, EC1524) [µg/mL] | MIC (B. subtilis EC1524; [2]) [µg/mL] | Relative Therapeutic Index (RTI), B. subtilis EC1524 (B. subtilis EC1524) | IC50 (B. cereus ATCC11778; Bacillus cereus, ATCC11778) [µg/mL] | MBC (B. cereus ATCC11778; Bacillus cereus, ATCC11778) [µg/mL] | MIC (B. cereus ATCC11778; Bacillus cereus, ATCC11778) [µg/mL] | MIC (B. cereus ATCC11778; [3]) [µg/mL] | Relative Therapeutic Index (RTI), B. cereus NRRL 11778 (B. cereus ATCC11778) | IC50 (E. coli ATCC25922) [µg/mL] | MBC (E. coli ATCC25922) [µg/mL] | MIC (E. coli ATCC25922) [µg/mL] | IC50 (P. aeruginosa ATCC27853) [µg/mL] | MBC (P. aeruginosa ATCC27853) [µg/mL] | MIC (P. aeruginosa ATCC27853) [µg/mL] | IC50 (S. aureus ATCC29219) [µg/mL] | MBC (S. aureus ATCC29219) [µg/mL] | MIC (S. aureus ATCC29219) [µg/mL] | MIC (Mtb H37Rv ATCC27294; [4]) [µg/mL] | other results |
| --- | --- | --- | --- | --- | --- | --- | --- | --- | --- | --- | --- | --- | --- | --- | --- | --- | --- | --- | --- | --- | --- |
| N-Acetyl-1-[P’-(3Z,7Z,11Z,15Z,19Z,23Z,27Z,31E,35E,39E,43-undecamethyl-2,6,10,14,18,22,26,30,34,38,42-tetratetracontaundecaenyl) P,P'-dihydrogen diphosphate]-α-d-glucosamine diammonium salt [GlcNAc-PP-Und] | – | – | – | – | – | – | – | – | – | – | – | – | – | – | – | – | – | – | – | – | reduction of DPAGT1 activity on adding product analogue (DPAGT1; equimolar to Dol-P and UDP-GlcNAc): 3 fold |
| CCCCCCCCCC(=O)N[C@H]1[C@H](O[C@H]2O[C@H](CO)[C@@H](O)[C@H](O)[C@H]2NC(=O)CCCCCCCCC)O[C@H](C[C@@H](O)[C@H]2O[C@@H](n3ccc(=O)[nH]c3=O)[C@H](O)[C@@H]2O)[C@H](O)[C@@H]1O [TUN-10,10, Di-N-decanoyl-tunicamycin] | 0.12 ± 0.04 (≈ 0.137 µM) | > 0.39 | 0.33 ± 0.11 (≈ 0.377 µM) | 0.39 (≈ 0.446 µM) | 2050 | 0.046 (≈ 0.0526 µM) | 12.5 (≈ 14.3 µM) | 0.33 ± 0.11 (≈ 0.377 µM) | 0.39 (≈ 0.446 µM) | 2050 | 91.6 (≈ 105 µM) | 400 (≈ 457 µM) | 330 ± 120 (≈ 377 µM) | 53.5 (≈ 61.1 µM) | 400 (≈ 457 µM) | 83 ± 29 (≈ 94.9 µM) | 49.3 (≈ 56.3 µM) | 400 (≈ 457 µM) | 83 ± 29 (≈ 94.9 µM) | 1.2 ± 0.3 (≈ 1.37 µM) | MIC (B. cereus ATCC11778; B. cereus, micro-broth dilution, mean ± SEM (n=3)): 0.33 ± 0.11 µg/mL (≈ 0.377 µM); MIC (Mtb H37Rv ATCC27294; [5]): 0.1 ± 0.1 µg/mL (≈ 0.114 µM); MIC (Mtb H37Rv ATCC27294; [6]): 1.2 µg/mL (≈ 1.37 µM); MIC (Mtb H37Rv ATCC27294; [7]): 0.1 µg/mL (≈ 0.114 µM); Relative Therapeutic Index (RTI), Mtb H37RV a (Mtb H37Rv ATCC27294): 667; Relative Therapeutic Index (RTI), Mtb H37RV b (Mtb H37Rv ATCC27294): 8000; LD50 values, HEK293 (HEK293 cells): N/A (N/A = not available. No or low cytotoxicity observed at highest, saturating concentration tested (400 µg mL-1)); Minimal Lethal Dose, HEK 293 (HEK293 cells): > 400 µg/mL; LD50 values, HepG2 (HepG2 cells): N/A (N/A = not available. No or low cytotoxicity observed at highest, saturating concentration tested (400 µg mL-1)); Minimal Lethal Dose, HepG2 (HepG2 cells): > 400 µg/mL; LD50 values, Raji (Raji cells): 196.17 ± 47.61 µg/mL; reduction of intracellular bacterial burdens ([1]; 1 × MIC): 1 logs; reduction of intracellular bacterial burdens ([1]; 10 × MIC): 2 logs |
| CCCCCCCCC(=O)N[C@H]1[C@H](O[C@H]2O[C@H](CO)[C@@H](O)[C@H](O)[C@H]2NC(=O)CCCCCCCC)O[C@H](C[C@@H](O)[C@H]2O[C@@H](n3ccc(=O)[nH]c3=O)[C@H](O)[C@@H]2O)[C@H](O)[C@@H]1O [TUN-9,9, Di-N-nonanoyl-tunicamycin] | 0.015 (≈ 0.0177 µM) | > 0.05 | 0.02 ± 0.01 (≈ 0.0236 µM) | 0.024 (≈ 0.0283 µM) | 33300 | 0.072 (≈ 0.085 µM) | > 25 | 0.65 ± 0.23 (≈ 0.767 µM) | 0.78 (≈ 0.921 µM) | 1026 | 87.1 (≈ 103 µM) | 400 (≈ 472 µM) | 330 ± 120 (≈ 390 µM) | 55 (≈ 64.9 µM) | 400 (≈ 472 µM) | 83 ± 29 (≈ 98 µM) | 48.9 (≈ 57.8 µM) | 400 (≈ 472 µM) | 83 ± 29 (≈ 98 µM) | 0.2 ± 0.02 (≈ 0.236 µM) | effect on DPAGT1 catalytic activity (DPAGT1; purified DPAGT1 enzyme, Figure 6F): negligible effect; MIC (B. subtilis EC1524; B. subtilis, micro-broth dilution, mean ± SEM (n=3)): 0.02 ± 0.01 µg/mL (≈ 0.0236 µM); 1-week MIC in GAST/Fe (Mtb H37Rv ATCC27294; Mtb H37Rv, minimal growth medium): 0.03 ± 0.001 µg/mL; potency (MIC) relative to tunicamycin (Mtb H37Rv ATCC27294; Mtb H37Rv, more potent than tunicamycin): ~5 fold; MIC (Mtb H37Rv ATCC27294; [5]): 0.03 ± 0.001 µg/mL (≈ 0.0354 µM); MIC (Mtb H37Rv ATCC27294; [6]): 0.2 µg/mL (≈ 0.236 µM); MIC (Mtb H37Rv ATCC27294; [7]): 0.03 µg/mL (≈ 0.0354 µM); Relative Therapeutic Index (RTI), Mtb H37RV a (Mtb H37Rv ATCC27294): 4000; Relative Therapeutic Index (RTI), Mtb H37RV b (Mtb H37Rv ATCC27294): 27000; LD50 values, HEK293 (HEK293 cells): N/A (N/A = not available. No or low cytotoxicity observed at highest, saturating concentration tested (400 µg mL-1)); Minimal Lethal Dose, HEK 293 (HEK293 cells): > 400 µg/mL; LD50 values, HepG2 (HepG2 cells): N/A (N/A = not available. No or low cytotoxicity observed at highest, saturating concentration tested (400 µg mL-1)); Minimal Lethal Dose, HepG2 (HepG2 cells): > 400 µg/mL; LD50 values, Raji (Raji cells): 355.57 ± 194.57 µg/mL; reduction of intracellular bacterial burdens ([1]; 1 × MIC): 1 logs; reduction of intracellular bacterial burdens ([1]; 10 × MIC): 2 logs |

— article PMC6218659, “Structures of DPAGT1 Explain Glycosylation Disease Mechanisms and Advance TB Antibiotic Design” (Cell, 2018)
